Test results published in PubChem BioAssay AID256 (DTP/NCI, 2004).
Values joined by “and” are separate entries in the source; they are usually repeats but may differ in a detail not shown here. Equal entries are not always repeated. Inconclusive results and toxic doses are left out. How the source made its calls: active means survival T/C of 150% or more; inactive means T/C below 125% in these data.

Tested on: CD2F1 mice, L1210 leukemia ip, survival T/C
Experiment: NCI In Vivo Anticancer Drug Screen. Data for tumor model L1210 Leukemia (intraperitoneal) in CD2F1 (CDF1) mice
Conditions: endpoint: mean survival time, higher = longer survival
Method in brief: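 Transplantable tumor in mice; compound-treated vs vehicle-treated groups. Read-out = treated/control ratio of the measured endpoint.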

[1] = dose: 12.5 mg/kg/injection, schedule: Q01DX009 (ip), vehicle: other
[2] = dose: 25.0 mg/kg/injection, schedule: Q01DX009 (ip), vehicle: other
[3] = dose: 50.0 mg/kg/injection, schedule: Q01DX009 (ip), vehicle: other
[4] = dose: 100.0 mg/kg/injection, schedule: Q01DX009 (ip), vehicle: other
[5] = dose: 100.0 mg/kg/injection, schedule: Q04DX003 (ip), vehicle: saline with Tween-80

Measured: T/C

O=C1C2CCN(CC2)C1CN1CCOCC1 (stereo not given)
inactive: dose: 12.5 mg/kg/injection, schedule: Q04DX003 (ip), vehicle: saline 96 % of control | dose: 25.0 mg/kg/injection, schedule: Q04DX003 (ip), vehicle: saline 100 % of control | dose: 50.0 mg/kg/injection, schedule: Q04DX003 (ip), vehicle: saline 111 % of control

COP(=O)(NC(C)=O)OC
inactive: dose: 50.0 mg/kg/injection, schedule: Q04DX002 (ip), vehicle: saline 87 % of control | dose: 100.0 mg/kg/injection, schedule: Q04DX002 (ip), vehicle: saline 93 % of control | dose: 200.0 mg/kg/injection, schedule: Q04DX002 (ip), vehicle: saline 93 % of control | dose: 400.0 mg/kg/injection, schedule: Q04DX002 (ip), vehicle: saline 96 % of control

CC1Cc2c([nH]c(=O)n(-c3ccccc3)c2=O)O1 (stereo not given)
inactive: dose: 100.0 mg/kg/injection, schedule: Q01DX001 (ip), vehicle: saline 103 % of control | dose: 200.0 mg/kg/injection, schedule: Q01DX001 (ip), vehicle: saline 92 % of control | dose: 400.0 mg/kg/injection, schedule: Q01DX001 (ip), vehicle: saline 92 % of control

CNC(=S)NNc1ccc(Cl)cc1
inactive: [1] 96 % of control | [2] 94 % of control | [3] 93 % of control | [4] 104 % of control

C=C(Br)CNC(=O)NCC
inactive: dose: 25.0 mg/kg/injection, schedule: Q04DX003 (ip), vehicle: saline with Tween-80 94 % of control | dose: 50.0 mg/kg/injection, schedule: Q04DX003 (ip), vehicle: saline with Tween-80 105 % of control | [5] 100 % of control

CONC(=O)c1ccccc1N=NN(C)C
inactive: dose: 18.75 mg/kg/injection, schedule: Q01DX009 (ip), vehicle: Klucel (hydroxypropylcellulose) (HPC) 117 % of control and 107 % of control | dose: 37.5 mg/kg/injection, schedule: Q01DX009 (ip), vehicle: Klucel (hydroxypropylcellulose) (HPC) 117 % of control and 109 % of control | dose: 75.0 mg/kg/injection, schedule: Q01DX009 (ip), vehicle: Klucel (hydroxypropylcellulose) (HPC) 101 % of control

CC(C)=NNC(=O)CC(=O)NN=C(C)C
inactive: dose: 100.0 mg/kg/injection, schedule: Q01DX009 (ip), vehicle: saline sonified 100 % of control | dose: 180.0 mg/kg/injection, schedule: Q01DX009 (ip), vehicle: saline with Tween-80 100 % of control | dose: 200.0 mg/kg/injection, schedule: Q01DX009 (ip), vehicle: saline sonified 102 % of control | dose: 266.0 mg/kg/injection, schedule: Q01DX009 (ip), vehicle: saline with Tween-80 100 % of control | dose: 400.0 mg/kg/injection, schedule: Q01DX009 (ip), vehicle: saline with Tween-80 110 % of control | dose: 600.0 mg/kg/injection, schedule: Q01DX009 (ip), vehicle: saline with Tween-80 122 % of control

COC(=O)CC1(C(=O)OC)Nc2ccc(Br)cc2C(=O)O1 (stereo not given)
inactive: dose: 100.0 mg/kg/injection, schedule: Q01DX001 (ip), vehicle: saline with Tween-80 96 % of control | dose: 200.0 mg/kg/injection, schedule: Q01DX001 (ip), vehicle: saline with Tween-80 96 % of control | dose: 400.0 mg/kg/injection, schedule: Q01DX001 (ip), vehicle: saline with Tween-80 94 % of control

Cc1[nH]c(=O)c(Br)cc1Br
inactive: [5] 98 % of control | dose: 200.0 mg/kg/injection, schedule: Q04DX003 (ip), vehicle: saline with Tween-80 101 % of control | dose: 400.0 mg/kg/injection, schedule: Q04DX003 (ip), vehicle: saline with Tween-80 101 % of control

CC1=CC(=O)c2ccccc2C1=O
inactive: dose: 9.0 mg/kg/injection, schedule: Q01DX009 (ip), vehicle: other 100 % of control | dose: 13.5 mg/kg/injection, schedule: Q01DX009 (ip), vehicle: other 114 % of control | dose: 20.0 mg/kg/injection, schedule: Q01DX001 (ip), vehicle: other 95 % of control | dose: 20.0 mg/kg/injection, schedule: Q01DX009 (ip), vehicle: other 97 % of control | dose: 30.0 mg/kg/injection, schedule: Q01DX009 (ip), vehicle: other 97 % of control | dose: 40.0 mg/kg/injection, schedule: Q01DX001 (ip), vehicle: other 104 % of control | dose: 60.0 mg/kg/injection, schedule: Q01DX001 (ip), vehicle: other 104 % of control | dose: 90.0 mg/kg/injection, schedule: Q01DX001 (ip), vehicle: other 104 % of control

CC(=O)OC1C(CNC(=O)N(C)N=O)OC(OC2(CNC(=O)N(C)N=O)OC(CNC(=O)N(C)N=O)C(OC(C)=O)C2OC(C)=O)C(OC(C)=O)C1OC(C)=O (stereo not given)
inactive: [1] 93 % of control | [2] 94 % of control | [3] 104 % of control | [4] 102 % of control | dose: 200.0 mg/kg/injection, schedule: Q01DX009 (ip), vehicle: other 120 % of control
